Measured values taken from PMC11249646, “Small-Molecule Disruptors of the Interaction between Calcium- and Integrin-Binding Protein 1 and Integrin αIIbβ3 as Novel Antiplatelet Agents” (ACS Pharmacology & Translational Science, 2024).
Like-named read-outs stand apart in the source and are kept apart here.

Legend:
[1] = molecular target: T1, CIB1 and αIIb interaction (GST-CIB1 : F-αIIb peptide) (Homo sapiens, UniProt Q99828); assay: FP assay, 384-well format (screen); assay type: binding; parameters: 384-well SCREEN Efficacy (%): concentration or dose not given beside the values
T1 construct: made in house; host or cells: BL-21 plus RIL cells (E. coli)
T1 sequence (Q99828 1-191): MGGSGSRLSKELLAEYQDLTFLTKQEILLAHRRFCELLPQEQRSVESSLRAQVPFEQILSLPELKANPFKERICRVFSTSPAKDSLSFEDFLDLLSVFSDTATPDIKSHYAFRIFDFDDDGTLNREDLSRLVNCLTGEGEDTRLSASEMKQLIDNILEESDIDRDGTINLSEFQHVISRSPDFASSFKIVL

[2] = molecular target: T2, GST-CIB1 : F-scrambled peptide (Homo sapiens, UniProt Q99828); assay: FP scrambled-peptide counter screen, 384-well format; assay type: binding; conditions: F-scrambled peptide
T2 construct: made in house; host or cells: BL-21 plus RIL cells (E. coli)
T2 sequence (Q99828 1-191): T1 sequence (Q99828 1-191)

[3] = molecular target: T3, CIB1 and αIIb interaction (CIB1-GST : F-αIIb peptide) (Homo sapiens, UniProt Q99828); assay: FP assay, 1536-well qHTS format (primary and confirmatory screen); assay type: binding
T3 construct: made in house; host or cells: BL-21 plus RIL cells (E. coli)
T3 sequence (Q99828 1-191): T1 sequence (Q99828 1-191)

[4] = molecular target: T4, GST-CIB1:F-αIIb interaction (Homo sapiens, UniProt Q99828); assay: Gel-based (in-gel) binding assay; conditions: 1 μM GST-CIB1, 400 nM F-αIIb; 60 μM, 1:2, 4-points
T4 construct: made in house; host or cells: BL-21 plus RIL cells (E. coli)
T4 sequence (Q99828 1-191): T1 sequence (Q99828 1-191)

[5] = molecular target: T5, CIB1-(His)6 (Homo sapiens, UniProt Q99828); assay: Microscale thermophoresis (MST) protein and small-molecule binding; conditions: MST; fluorescently labeled CIB1-(His)6 50 nM; read-out: equilibrium dissociation constant (Kd)
T5 construct: made in house
T5 sequence (Q99828 1-191): T1 sequence (Q99828 1-191)
Experimental: Determining a direct measurement of a molecule’s binding interaction with its target is a vital parameter for characterizing a chemical probe. We employed microscale thermophoresis (MST) for this purpose, leveraging its sensitivity and capacity to deliver quantitative data on the binding interaction.[35] […] We began by testing increasing amounts of the compound(s) and incubating them with the fluorescently labeled CIB1-(His)6, followed by the detection of the MST traces on the NT automated instrument (for more details see Materials and Methods Section). […] We were able to rule out compound interference with the histidine tag on CIB1 and/or the fluorophore used for the MST assay by testing the compounds with a fluorescently labeled hexa-histidine peptide (Figure S8B).
The binding affinity of the compounds to the CIB1-(His)6 protein was evaluated using microscale thermophoresis (MST). The recombinant protein was labeled with a fluorophore using Monolith His-tag labeling RED-tris-NTA second Generation kit (Nanotemper Technologies, Munich, Germany) following the manufacturer’s protocol. Compounds were titrated in a 2-fold dilution series (16 points, final concentration range of 6.1 nM to 200 μM) and incubated with the same volume of 50 nM (final concentration; 25 nM RED-tris-NTA) labeled recombinant protein for 30 min at RT (20 μL final assay volume). […] The dissociation constant (Kd) values were calculated by fitting the thermophoresis signal at 20 s of the thermograph using the MO Affinity Analysis software (Nanotemper Technologies, Munich, Germany) and confirmed using GraphPad Prism.

[6] = system: washed human platelets; assay: Human platelet aggregation assay (thrombin-induced); assay type: cell-based
From the text: A classical challenge in target-based drug discovery is moving from biochemical to cellular assay and the essential step of determining if the compounds of interest can perform in a cellular context. After characterization of the compounds in a series of biochemical assay formats, our next step was to assess their activity in a cellular environment. Our previous studies have shown that the interaction of the cytoplasmic domain of integrin αIIbβ3, a key regulator of platelet aggregation, with CIB1, is involved in downstream signaling in platelet activation and aggregation. We sought to determine whether our candidate compounds were inhibiting this interaction by evaluating them for platelet function in a human platelet aggregation assay. We prepared platelet-rich plasma (PRP) and washed the platelets as previously described[44] and then performed a platelet aggregation assay using the washed platelet suspensions (2 × 10^8/platelets/mL) followed by the recording of aggregation traces (see Materials and Methods Section). To induce platelet aggregation, 0.03 U/mL of thrombin, a physiological agonist of platelet activation, was used.
(§1) Figure 6 Effect of compounds on human platelet activation. Representative platelet aggregation tracings of washed human platelet suspensions pretreated for 30 min at 37 °C with vehicle (DMSO) or compounds at indicated concentrations followed by activation with thrombin (0.03–0.1 U/mL). Panel (A): NCGC00071855. Panel (B–D): NCGC00351170. Panel (E): CD62P exposure was in the presence of NCGC00351170. Data represents mean ± SEM, n = 4 individual experiments; ns = non significant *P < 0.05, ***P < 0.001, ****P < 0.0001.
(§2) Whole blood was drawn by venipuncture from healthy adult volunteers (of both gender and race) with informed consent. Approval was obtained from the institutional review boards of Thomas Jefferson University, according to the Declaration of Helsinki. Blood was collected in acidified citrate dextrose as an anticoagulant. Platelet-rich plasma (PRP) and washed platelets were prepared, as previously described.[44] Platelet aggregation was performed using washed platelet suspensions containing 2 × 10^8 platelets/mL using a Chrono-Log Lumi-Aggregometer (Chrono-Log), as described previously.[11] Aggregation traces were recorded by using Aggrolink software (Chrono-Log). Thrombin-induced P-selectin (CD62P) exposure was performed using Accuri C6 flowcytometer (BD Bioscience) as described previously.[11]
Figure S9: Effect of compounds on human platelet activation. Representative platelet aggregation
tracings of washed human platelet suspensions treated with vehicle (DMSO) or indicated
compounds at 10 μM for 30 minutes at 37 °C followed by activation with thrombin (0.03U/mL).

[7] = system: P-selectin (CD62P) exposure on human platelets; assay: Thrombin-induced P-selectin (CD62P) exposure, flow cytometry; assay type: cell-based; conditions: various doses
Experimental: […]. These findings indicate that through the utilization of this FP assay, we successfully identified inhibitors of platelet function, which may warrant further assessment for their potential as antiplatelet agents.
as §1
as §2, with “Thrombin-induced P-selectin (CD62P) exposure was performed using Accuri C6 flowcytometer (BD Bioscience) as described previously.[11]” left out

[8] = In vitro ADME: solubility; assay type: physicochemical; conditions: read-out: Solubility
[9] = In vitro ADME: PAMPA permeability
[10] = molecular target: T6, CIB1 and αIIb peptide (Homo sapiens, UniProt Q99828); assay: Intrinsic tryptophan fluorescence (ITF) assay
T6 sequence (Q99828 1-191): T1 sequence (Q99828 1-191)

Compound: COc1ccccc1C(=O)c1no[n+]([O-])c1C(=O)c1ccccc1OC.O=C(O)C(F)(F)F [NCGC00351170-01]
- IC50 ([1]; 384-well FP assay, Table 1, read-out: FP assay IC50): 4.19 µM
- 384-well SCREEN Efficacy (%) ([1]; F-αIIb peptide): 57%
- 384-well SCREEN Confirm? ([1]; F-αIIb peptide, YES/NO): YES
- IC50 ([1]; F-αIIb peptide, read-out: 384-well SCREEN IC50): 7.9 µM
- IC50 ([1]; quoted in text for comparison with MST EC50, read-out: potency in the 384-well FP assays): ~4 µM
- Confirm and Selective? ([1]; selective toward αIIb: negative curve class and/or IC50 ratio of >3-fold and/or >2-fold efficacy vs scrambled peptide): Inconclusive
- 384-well COUNTERSCREEN Efficacy (%) [2]: 34%
- 384-well COUNTERSCREEN Confirm? ([2]; *: Curve in opposite direction): Inconclusive
- IC50 ([2]; read-out: 384-well COUNTERSCREEN IC50): 8.9 µM
- CONFIRMATORY SCREEN Confirm? ([3]; confirmatory screen, YES/NO call): YES
- CONFIRMATORY SCREEN Curve Class ([3]; confirmatory screen, qHTS curve class, negative sign = inhibitory curve): -1.2
- CONFIRMATORY SCREEN Efficacy (%) ([3]; confirmatory screen, negative = inhibition): -45%
- IC50 ([3]; confirmatory screen, read-out: CONFIRMATORY SCREEN IC50): 5.6 µM
- Efficacy (%) ([3]; qHTS FP screen hits, Table S2, negative = inhibition): -37%
- Curve Class ([3]; qHTS FP screen hits, Table S2, one class per curve where COUNT > 1, negative sign = inhibitory curve): -1.2
- IC50 ([3]; qHTS FP screen hits, Table S2, read-out: IC50): 5 µM
- Active in Gel Assay? [4]: YES
- Kd [5]: 2.9 µM
- Platelet Aggregation Result ([6]; 10 μM compound): Active
- inhibition at 10 µM ([6]; Homo sapiens, Platelet, single concentration of 10 μM (n = 3), thrombin): 94%
- lowest concentration required to achieve >95% inhibition of platelet aggregation ([6]; dose response, thrombin): 2 µM
- Thrombin Assay 10 µM (%) ([6]; platelet aggregation inhibition at 10 µM): 94%
- P-selectin (CD62P) exposure [7]: dose-dependent inhibition of platelet activation
- solubility [8]: > 52 µg/mL
- Papp [9]: 102 ×10⁻⁶ cm/s
- IC50 [10]: 15.6 µM
